One assay addresses T1, ALDH1A2 (Homo sapiens, UniProt O94788).
T1 construct: His-tag; made in house; host or cells: E. coli Rosetta (DE3)
T1 sequence (O94788 1-518): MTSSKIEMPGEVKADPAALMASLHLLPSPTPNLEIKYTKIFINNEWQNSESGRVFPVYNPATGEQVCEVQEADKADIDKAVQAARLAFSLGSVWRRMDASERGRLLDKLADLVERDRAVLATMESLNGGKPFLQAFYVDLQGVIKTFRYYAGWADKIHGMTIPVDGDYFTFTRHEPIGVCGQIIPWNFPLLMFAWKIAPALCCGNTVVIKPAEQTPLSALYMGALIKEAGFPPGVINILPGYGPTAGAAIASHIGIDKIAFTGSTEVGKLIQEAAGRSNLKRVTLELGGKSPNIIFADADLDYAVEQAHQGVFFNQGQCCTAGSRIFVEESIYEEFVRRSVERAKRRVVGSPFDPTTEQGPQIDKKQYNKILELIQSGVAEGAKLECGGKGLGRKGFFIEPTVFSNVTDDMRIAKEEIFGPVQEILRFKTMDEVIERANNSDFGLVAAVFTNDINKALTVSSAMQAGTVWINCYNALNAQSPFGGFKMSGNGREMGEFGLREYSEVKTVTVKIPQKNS
Put plainly: Selectivity biochemical assay, NAD(P)H-Glo Detection System. The essentials: (§1)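 Recombinant full-length His-tagged human enzymes expressed in E. coli were pre-incubated 30 min at room temperature with compound (10-point, 3-fold series; top 20 μM for ALDH1A3, 250 μM for ALDH1A1/1A2). Propionaldehyde and NAD were then added at Km; NADH was read by NAD(P)H-Glo luminescence. Buffer: Tris (pH 7.6 for 1A1/1A2, 9.0 for 1A3), 1 mM TCEP, 0.01% Tween-20.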

A further assay has as its target T2, ALDH1A1 (Homo sapiens, UniProt P00352).
T2 construct: His-tag; made in house; host or cells: E. coli Rosetta (DE3)
T2 sequence (P00352 1-501): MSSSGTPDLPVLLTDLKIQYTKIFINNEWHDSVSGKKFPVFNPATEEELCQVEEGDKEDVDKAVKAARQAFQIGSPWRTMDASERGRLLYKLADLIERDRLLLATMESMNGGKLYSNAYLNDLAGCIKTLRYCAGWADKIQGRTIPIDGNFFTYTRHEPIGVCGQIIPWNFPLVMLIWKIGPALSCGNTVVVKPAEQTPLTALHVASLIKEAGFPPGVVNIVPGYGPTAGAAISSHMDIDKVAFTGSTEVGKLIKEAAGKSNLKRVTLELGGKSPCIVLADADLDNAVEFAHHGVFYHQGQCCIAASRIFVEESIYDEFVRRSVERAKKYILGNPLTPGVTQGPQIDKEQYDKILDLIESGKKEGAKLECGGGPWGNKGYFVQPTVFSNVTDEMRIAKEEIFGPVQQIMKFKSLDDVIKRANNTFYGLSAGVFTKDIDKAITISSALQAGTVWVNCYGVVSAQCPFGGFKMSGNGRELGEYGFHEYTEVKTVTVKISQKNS
Described as above. The method, boiled down:
as §1

By IC50 is commonly meant the concentration at which inhibition is half-maximal. Lower therefore signals inhibition by little substance.

Consider `CC1(c2cccc(F)c2)CCCN1CCOc1ccc2c(c1)CCC(=O)N2` (stereo not shown) [ALDHI-2037, 6-[2-[2-(3-fluorophenyl)-2-methyl-pyrrolidin-1-yl]ethoxy]-3,4-dihydro-1H-quinolin-2-one], for which the IC50 against ALDH1A2 was 0.1 to 1 µM; against ALDH1A1, ≥ 100 µM.

On to `O=C1CCc2cc(NC(=O)c3ccccc3-c3cccc(F)c3)ccc2N1` [ALDHI-1007, 3′-fluoro-N-(2-oxo-1,2,3,4-tetrahydroquinolin-6-yl)-[1,1′-biphenyl]-2-carboxamide], for which the concentration for half-maximal inhibition (IC50) against ALDH1A2 was 1 to 10 µM; on ALDH1A1, ≥ 100 µM.

Take `O=C1CCc2cc(OCCN3CCCC3c3cc(F)cc(F)c3)ccc2N1` (stereo not shown) [ALDHI-2032, 6-[2-[2-(3,5-difluorophenyl)pyrrolidin-1-yl]ethoxy]-3,4-dihydro-1H-quinolin-2-one]: the IC50 is 0.1 to 1 µM at ALDH1A2 and 10 to 100 µM against ALDH1A1.

For `O=C1COc2cc(NC(=O)c3scnc3-c3cccc(F)c3)ccc2N1` [ALDHI-1016, 4-(3-fluorophenyl)-N-(3-oxo-4H-1,4-benzoxazin-7-yl)thiazole-5-carboxamide], the figures for the 50% inhibitory concentration (IC50) against ALDH1A2 and on ALDH1A1 were 1 to 10 µM and ≥ 100 µM, respectively.

Consider `O=C1CCc2cc(OCCN3CCCC3c3ccc(F)c(F)c3)ccc2N1` (stereo not shown) [ALDHI-2039, 6-[2-[2-(3,4-difluorophenyl)pyrrolidin-1-yl]ethoxy]-3,4-dihydro-1H-quinolin-2-one], for which the IC50 against ALDH1A2 and at ALDH1A1 was 1 to 10 µM throughout.

In the case of `O=C1CCc2cc(OCCN3CC(O)CC3c3cccc(F)c3)ccc2N1` (mixture of isomers) [ALDHI-2035, 6-[2-[2-(3-fluorophenyl)-4-hydroxy-pyrrolidin-1-yl]ethoxy]-3,4-dihydro-1H-quinolin-2-one], the values for the half-inhibitory concentration (IC50) at ALDH1A2 and against ALDH1A1 were 0.1 to 1 µM and 10 to 100 µM, respectively.

In the case of `O=C1CCc2cc(OCCN(CCO)Cc3cccnc3)ccc2N1` [ALDHI-3005, 6-[2-[2-hydroxyethyl(3-pyridylmethyl)amino]ethoxy]-3,4-dihydro-1H-quinolin-2-one], the half-inhibitory concentration (IC50) at ALDH1A2 is 10 to 100 µM; at ALDH1A1, ≥ 100 µM.

As for `CCn1cc(C2CCCN2CCOc2ccc3c(c2)CCC(=O)N3)cn1` (stereo not shown) [ALDHI-2016, 6-[2-[2-(1-ethylpyrazol-4-yl)pyrrolidin-1-yl]ethoxy]-3,4-dihydro-1H-quinolin-2-one], the half-maximal inhibitory concentration (IC50) against ALDH1A2 and on ALDH1A1 was ≥ 100 µM throughout.

For the compound `O=C1CCc2cc(OCCN3CCC[C@H]3c3cccc(F)c3)ccc2N1` [ALDHI-2018, 6-[2-[(2S)-2-(3-fluorophenyl)pyrrolidin-1-yl]ethoxy]-3,4-dihydro-1H-quinolin-2-one], the concentration for half-maximal inhibition (IC50) against ALDH1A2 was 0.1 to 1 µM; against ALDH1A1 it was ≥ 100 µM.

Take `CC1Cc2cc(OCCN3CCCC3c3cccc(F)c3)ccc2NC1=O` (stereo not shown) [ALDHI-2048, 6-[2-[2-(3-fluorophenyl)pyrrolidin-1-yl]ethoxy]-3-methyl-3,4-dihydro-1H-quinolin-2-one]: the results for the IC50 against ALDH1A2 and against ALDH1A1 were 0.1 to 1 µM and 10 to 100 µM, respectively.

For the compound `Cc1cccc(-c2ncsc2C(=O)Nc2ccc3c(c2)CCC(=O)N3)c1` [ALDHI-1013, 4-(m-tolyl)-N-(2-oxo-3,4-dihydro-1H-quinolin-6-yl)thiazole-5-carboxamide], the 50% inhibitory concentration (IC50) on ALDH1A2 is 1 to 10 µM; on ALDH1A1, ≥ 100 µM.

In the case of `CC1(c2ccccc2)COCCN1CCOc1ccc2c(c1)CCC(=O)N2` (stereo not shown) [ALDHI-2040, 6-[2-(3-methyl-3-phenyl-morpholin-4-yl)ethoxy]-3,4-dihydro-1H-quinolin-2-one], the IC50 against ALDH1A2 was 0.1 to 1 µM; against ALDH1A1, ≥ 100 µM.

As to `CCC1Oc2cc(OCCN3CCCC3c3cccc(F)c3)ccc2NC1=O` (stereo not shown) [ALDHI-2045, 2-ethyl-7-[2-[2-(3-fluorophenyl)pyrrolidin-1-yl]ethoxy]-4H-1,4-benzoxazin-3-one], the IC50 was 1 to 10 µM against ALDH1A2 and ≥ 100 µM against ALDH1A1.

On to `O=C1CCc2cc(OCCN3CC(F)(F)CC3c3cccc(F)c3)ccc2N1` (stereo not shown) [ALDHI-2053, 6-[2-[4,4-difluoro-2-(3-fluorophenyl)pyrrolidin-1-yl]ethoxy]-3,4-dihydro-1H-quinolin-2-one], for which the half-inhibitory concentration (IC50) is 1 to 10 µM at ALDH1A2 and ≥ 100 µM on ALDH1A1.

With `O=C1CCc2cc(OCCN3CC(F)CC3c3cccc(F)c3)ccc2N1` (stereo not shown) [ALDHI-2052, 6-[2-[4-fluoro-2-(3-fluorophenyl)pyrrolidin-1-yl]ethoxy]-3,4-dihydro-1H-quinolin-2-one], the IC50 against ALDH1A2 is 0.1 to 1 µM; at ALDH1A1, ≥ 100 µM.

In the case of `O=C1CCc2cc(OCCN3CCCC3c3cccnc3)ccc2N1` (stereo not shown) [ALDHI-2005, 6-[2-[2-(3-pyridyl)pyrrolidin-1-yl]ethoxy]-3,4-dihydro-1H-quinolin-2-one], the IC50 on ALDH1A2 is 10 to 100 µM; on ALDH1A1, ≥ 100 µM.

Regarding `O=C1CCc2cc(NC(=O)c3sc(N4CCOCC4)nc3-c3cccc(F)c3)ccc2N1` [ALDHI-1001, 4-(3-fluorophenyl)-2-morpholino-N-(2-oxo-3,4-dihydro-1H-quinolin-6-yl)thiazole-5-carboxamide], the IC50 against ALDH1A2 and against ALDH1A1 was ≥ 100 µM throughout.

For the compound `O=C1CCc2cc(NC(=O)c3scnc3-c3cccs3)ccc2N1` [ALDHI-1023, N-(2-oxo-3,4-dihydro-1H-quinolin-6-yl)-4-(2-thienyl)thiazole-5-carboxamide], the half-maximal inhibitory concentration (IC50) against ALDH1A2 was 0.1 to 1 µM; against ALDH1A1, ≥ 100 µM.

As to `Cc1ccc(C2CCCN2CCOc2ccc3c(c2)CCC(=O)N3)cn1` (stereo not shown) [ALDHI-2030, 6-[2-[2-(6-methyl-3-pyridyl)pyrrolidin-1-yl]ethoxy]-3,4-dihydro-1H-quinolin-2-one], the IC50 against ALDH1A2 was 10 to 100 µM; at ALDH1A1, ≥ 100 µM.

On to `CC1(C)Oc2cc(OCCN3CCCC3c3cccc(F)c3)ccc2NC1=O` (stereo not shown) [ALDHI-2043, 7-[2-[2-(3-fluorophenyl)pyrrolidin-1-yl]ethoxy]-2,2-dimethyl-4H-1,4-benzoxazin-3-one], for which the IC50 against ALDH1A2 is 1 to 10 µM; at ALDH1A1 it was ≥ 100 µM.

Take `COc1cccc(C2CCCN2CCOc2ccc3c(c2)CCC(=O)N3)c1` (stereo not shown) [ALDHI-2034, 6-[2-[2-(3-methoxyphenyl)pyrrolidin-1-yl]ethoxy]-3,4-dihydro-1H-quinolin-2-one]: the figures for the IC50 at ALDH1A2 and at ALDH1A1 were 10 to 100 µM and ≥ 100 µM, respectively.

Turning to `O=C1CCc2cc(NC(=O)c3ncsc3-c3ccsc3)ccc2N1` [ALDHI-1011, N-(2-oxo-3,4-dihydro-1H-quinolin-6-yl)-5-(3-thienyl)thiazole-4-carboxamide], the IC50 against ALDH1A2 was 1 to 10 µM; against ALDH1A1 it was ≥ 100 µM.

Take `O=C1COc2cc(OCCN3CCCC3c3cccc(F)c3)ccc2N1` (stereo not shown) [ALDHI-2009, 7-[2-[2-(3-fluorophenyl)pyrrolidin-1-yl]ethoxy]-4H-1,4-benzoxazin-3-one]: the IC50 is 1 to 10 µM against ALDH1A2 and ≥ 100 µM at ALDH1A1.

For `O=C1CCc2cc(OCCN3CCCC3c3ccncc3)ccc2N1` (stereo not shown) [ALDHI-2004, 6-[2-[2-(4-pyridyl)pyrrolidin-1-yl]ethoxy]-3,4-dihydro-1H-quinolin-2-one], the IC50 was 10 to 100 µM against ALDH1A2 and ≥ 100 µM at ALDH1A1.

As to `O=C1CCc2cc(OCCN3CCC[C@@H]3c3cccc(F)c3)ccc2N1` [ALDHI-2007, 6-[2-[(2R)-2-(3-fluorophenyl)pyrrolidin-1-yl]ethoxy]-3,4-dihydro-1H-quinolin-2-one], the concentration for half-maximal inhibition (IC50) is 0.1 to 1 µM at ALDH1A2 and ≥ 100 µM at ALDH1A1.

Consider `O=C1CCc2cc(OCCN3CCCC3c3cccc(F)c3)c(F)cc2N1` (stereo not shown) [ALDHI-2050, 7-fluoro-6-[2-[2-(3-fluorophenyl)pyrrolidin-1-yl]ethoxy]-3,4-dihydro-1H-quinolin-2-one], for which the IC50 on ALDH1A2 is 1 to 10 µM; at ALDH1A1, ≥ 100 µM.

For `O=C1CCc2cc(NC(=O)c3ocnc3-c3cccc(F)c3)ccc2N1` [ALDHI-1019, 4-(3-fluorophenyl)-N-(2-oxo-3,4-dihydro-1H-quinolin-6-yl)oxazole-5-carboxamide], the 50% inhibitory concentration (IC50) on ALDH1A2 and at ALDH1A1 was ≥ 100 µM in each case.

In the case of `O=C1CCc2cc(OCCN3C(=O)CCC3c3ccccc3)ccc2N1` (stereo not shown) [ALDHI-2051, 6-[2-(2-oxo-5-phenyl-pyrrolidin-1-yl)ethoxy]-3,4-dihydro-1H-quinolin-2-one], the half-inhibitory concentration (IC50) was 1 to 10 µM against ALDH1A2 and ≥ 100 µM on ALDH1A1.

On to `O=C1CSc2cc(OCCN3CCCC3c3cccc(F)c3)ccc2N1` (stereo not shown) [ALDHI-2008, 7-[2-[2-(3-fluorophenyl)pyrrolidin-1-yl]ethoxy]-4H-1,4-benzothiazin-3-one], for which the results for the IC50 at ALDH1A2 and on ALDH1A1 were 10 to 100 µM and ≥ 100 µM, respectively.

The record behind these values is patent US20240174634A1, “Aldehyde Dehydrogenase Inhibitors and Their Therapeutic Use” (priority 2020, published 2024).
